Results: ChEMBL document CHEMBL3112512, “Microwave induced three-component synthesis and antimycobacterial activity of benzopyrazolo[3,4-b]quinolindiones” (2014)
≈ marks a conversion by molar mass, not a printed value.

Tests used:
Type in all cases: functional
[1] = test system: Mycobacterium tuberculosis; experiment: Antimycobacterial activity against isoniazid and rifampicin-resistant Mycobacterium tuberculosis UT544 clinical isolate by MTT assay
[2] = test system: Mycobacterium tuberculosis; experiment: Antimycobacterial activity against isoniazid-resistant Mycobacterium tuberculosis H37Rv ATCC 35822 by MTT assay
[3] = test system: Mycobacterium tuberculosis; experiment: Antimycobacterial activity against isoniazid and rifampicin-resistant Mycobacterium tuberculosis MTB411 clinical isolate by MTT assay
[4] = test system: Mycobacterium tuberculosis; experiment: Antimycobacterial activity against isoniazid and rifampicin-resistant Mycobacterium tuberculosis MTB4000 clinical isolate by MTT assay
[5] = test system: Mycobacterium tuberculosis; experiment: Antimycobacterial activity against streptomycin-resistant Mycobacterium tuberculosis H37Rv ATCC 35820 by MTT assay
[6] = test system: Mycobacterium tuberculosis; experiment: Antimycobacterial activity against isoniazid and rifampicin-resistant Mycobacterium tuberculosis MTB985 clinical isolate by MTT assay
[7] = test system: Mycobacterium tuberculosis; experiment: Antimycobacterial activity against rifampicin-resistant Mycobacterium tuberculosis H37Rv ATCC 35838 by MTT assay
[8] = test system: Mycobacterium tuberculosis; experiment: Antimycobacterial activity against ethambutol-resistant Mycobacterium tuberculosis H37Rv ATCC 35837 by MTT assay
[9] = test system: Mycobacterium tuberculosis; experiment: Antimycobacterial activity against isoniazid and rifampicin-resistant Mycobacterium tuberculosis MTB2556 clinical isolate by MTT assay

Row | SMILES | MIC [1] [µg/mL] | MIC [2] [µg/mL] | MIC [3] [µg/mL] | MIC [4] [µg/mL] | MIC [5] [µg/mL] | MIC [6] [µg/mL] | MIC [7] [µg/mL] | MIC [8] [µg/mL] | MIC [9] [µg/mL]
1 | Cc1ccc(-c2c3c(nc4c2c(C)nn4-c2ccccc2)-c2ccccc2C(=O)C3=O)cc1 | ≤ 2 | ≤ 2 | 4 (≈ 9.31 µM) | ≤ 2 | ≤ 2 | ≤ 2 | 4 (≈ 9.31 µM) | 4 (≈ 9.31 µM) | ≤ 2
2 | O=C1C(=O)c2ccccc2C2=C1C(c1ccccc1)c1c(-c3ccc([N+](=O)[O-])cc3)n[nH]c1N2 (stereo not given) | 8 (≈ 17.8 µM) | 16 (≈ 35.7 µM) | 16 (≈ 35.7 µM) | 16 (≈ 35.7 µM) | 16 (≈ 35.7 µM) | 8 (≈ 17.8 µM) | 16 (≈ 35.7 µM) | > 32 | 8 (≈ 17.8 µM)
3 | Cc1ccc(-c2n[nH]c3nc4c(c(-c5ccc([N+](=O)[O-])cc5)c23)C(=O)C(=O)c2ccccc2-4)cc1 | > 32 | > 32 | > 32 | > 32 | > 32 | > 32 | > 32 | > 32 | > 32
4 | COc1ccc(-c2c3c(nc4[nH]nc(-c5ccc(Cl)cc5)c24)-c2ccccc2C(=O)C3=O)cc1 | 8 (≈ 17.2 µM) | > 32 | 16 (≈ 34.3 µM) | 16 (≈ 34.3 µM) | 16 (≈ 34.3 µM) | 16 (≈ 34.3 µM) | 16 (≈ 34.3 µM) | > 32 | 8 (≈ 17.2 µM)
5 | Cc1nn(-c2ccccc2)c2nc3c(c(-c4ccccc4)c12)C(=O)C(=O)c1ccccc1-3 | ≤ 2 | ≤ 2 | 4 (≈ 9.63 µM) | ≤ 2 | ≤ 2 | ≤ 2 | ≤ 2 | ≤ 2 | ≤ 2
6 | Cc1nn(-c2ccccc2)c2nc3c(c(-c4ccc(Cl)cc4)c12)C(=O)C(=O)c1ccccc1-3 | > 32 | > 32 | > 32 | > 32 | > 32 | > 32 | > 32 | > 32 | > 32
7 | NNC(=O)c1ccncc1 [ISONIAZID] | > 0.5 | > 0.5 | > 0.5 | > 0.5 | 0.25 (≈ 1.82 µM) | > 0.5 | 0.25 (≈ 1.82 µM) | 0.25 (≈ 1.82 µM) | > 0.5
8 | COc1cc(-c2c3c(nc4c2c(C)nn4-c2ccccc2)-c2ccccc2C(=O)C3=O)cc(OC)c1OC | > 32 | > 32 | > 32 | > 32 | > 32 | > 32 | > 32 | > 32 | > 32
9 | Cc1ccc(-c2n[nH]c3c2C(c2ccccc2)C2=C(N3)c3ccccc3C(=O)C2=O)cc1 (stereo not given) | 16 (≈ 38.3 µM) | 16 (≈ 38.3 µM) | 16 (≈ 38.3 µM) | 16 (≈ 38.3 µM) | 16 (≈ 38.3 µM) | 16 (≈ 38.3 µM) | 4 (≈ 9.58 µM) | 16 (≈ 38.3 µM) | 16 (≈ 38.3 µM)
10 | O=C1C(=O)c2ccccc2C2=C1C(c1ccccc1)c1c(-c3ccc(Cl)cc3)n[nH]c1N2 (stereo not given) | > 32 | > 32 | > 32 | > 32 | > 32 | > 32 | > 32 | > 32 | > 32
11 | CO[C@H]1/C=C/O[C@@]2(C)Oc3c(C)c(O)c4c(O)c(c(/C=N/N5CCN(C)CC5)c(O)c4c3C2=O)NC(=O)/C(C)=C\C=C\[C@H](C)[C@H](O)[C@@H](C)[C@@H](O)[C@@H](C)[C@H](OC(C)=O)[C@@H]1C [RIFAMPIN] | > 0.5 | 0.125 (≈ 0.152 µM) | > 0.5 | > 0.5 | 0.125 (≈ 0.152 µM) | > 0.5 | > 0.5 | 0.125 (≈ 0.152 µM) | > 0.5
12 | Cc1nn(-c2ccccc2)c2nc3c(c(-c4ccc(F)cc4)c12)C(=O)C(=O)c1ccccc1-3 | ≤ 2 | ≤ 2 | 4 (≈ 9.23 µM) | ≤ 2 | ≤ 2 | ≤ 2 | 4 (≈ 9.23 µM) | 4 (≈ 9.23 µM) | ≤ 2
13 | O=C1C(=O)c2ccccc2C2=C1C(c1ccccc1)c1c(-c3ccccc3)n[nH]c1N2 (stereo not given) | > 32 | > 32 | > 32 | > 32 | > 32 | > 32 | > 32 | > 32 | > 32
14 | COc1ccc(C2C3=C(Nc4[nH]nc(-c5ccccc5)c42)c2ccccc2C(=O)C3=O)cc1 (stereo not given) | > 32 | > 32 | > 32 | > 32 | > 32 | > 32 | > 32 | > 32 | > 32
15 | Cc1ccc(C2C3=C(Nc4[nH]nc(-c5ccccc5)c42)c2ccccc2C(=O)C3=O)cc1 (stereo not given) | > 32 | > 32 | > 32 | > 32 | > 32 | > 32 | > 32 | > 32 | > 32
